Key:
[1] = tested on: arachidonic acid-induced ear-inflammation; assay: Arachidonic acid-induced ear-inflammation test in mice; format: in vivo, female BALB/cA mice; conditions: intraperitoneally 30 minutes before arachidonic acid on the right ear
Method: The anti-inflammatory potential of Pemirolast can be tested in "arachidonic acid-induced ear-inflammation test in mice", a commonly employed method for screening and evaluation of antiinflammatory drugs. Dexamethasone was employed as reference compound.
The study can be performed in female BALB/cA mice from M & B A/S, DK-8680 Ry. The test substances (various concentration of Pemirolast dissolved in aqueous solutions) and the reference compound are administered intraperitoneally in volumes of 20 ml per kg body weight 30 minutes before application of arachidonic acid to the ear. All groups are then treated with 20 µl arachidonic acid, 100 mg/ml in acetone, on the right ear. One hour after the application of arachidonic acid the mice are sacrificed, the ears cut from the tip with a punch biopsy knife (8 mm diameter) and weighed. Mean weights and standard deviations are calculated. Relative ear oedema is assessed as the weight difference between right and left ear of each mouse expressed as percent of the left ear. Percent inhibition of the relative ear oedema compared with the vehicle treated groups is calculated for the test substance and reference compound treated groups. […]

MMP-2 = molecular target: T1, MMP-2 (Homo sapiens, UniProt P08253); assay: MMP enzyme assay (fluorogenic Mca peptide substrate, MDS Pharma Services); format: biochemical; conditions: concentration giving 50 % inhibition; Human recombinant MMP-2; read-out: Concentration of Pemirolast
T1 sequence (P08253 110-660): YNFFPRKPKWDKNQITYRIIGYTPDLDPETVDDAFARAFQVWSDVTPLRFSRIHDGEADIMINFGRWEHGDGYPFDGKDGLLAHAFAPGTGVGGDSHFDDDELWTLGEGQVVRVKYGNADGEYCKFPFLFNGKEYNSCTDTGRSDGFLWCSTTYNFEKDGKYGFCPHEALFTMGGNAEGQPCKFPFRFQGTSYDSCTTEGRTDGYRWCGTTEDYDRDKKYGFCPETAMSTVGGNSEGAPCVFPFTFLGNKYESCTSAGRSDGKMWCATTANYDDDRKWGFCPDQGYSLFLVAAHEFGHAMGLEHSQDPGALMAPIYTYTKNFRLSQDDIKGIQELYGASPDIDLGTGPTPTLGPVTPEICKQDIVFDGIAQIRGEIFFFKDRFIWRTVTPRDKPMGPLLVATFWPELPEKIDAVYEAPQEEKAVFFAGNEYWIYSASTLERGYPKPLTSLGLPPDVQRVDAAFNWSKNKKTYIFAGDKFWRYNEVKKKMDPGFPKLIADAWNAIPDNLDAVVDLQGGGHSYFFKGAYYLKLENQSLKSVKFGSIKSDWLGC
Method: (§1) The inhibitory effect of Pemirolast on human MMP's and cytokines were determined by enzyme assays carried out by MDS Pharma Services.
(§2) The inhibition of MMP's can be determined according to the test methods described by Knight CG, Willenbrock F, Murphy G (A novel coumarin-labelled peptide for sensitive continuous assays of the matrix metalloproteinases, FEBS Lett. 1992 Jan 27;296(3):263-6); Johnson LL, Dyer R, Hupe DJ (Matrix metalloproteinases, Curr Opin Chem Biol. 1998 Aug;2(4):466-71); and Olson MW, Gervasi DC, Mobashery S, Fridman R (Kinetic analysis of the binding of human matrix metalloproteinase-2 and -9 to tissue inhibitor of metalloproteinase (TIMP)-1 and TIMP-2, J Biol Chem. 1997 Nov 21;272(47):29975-83). The methods employ Human rheumatoid synovial fibroblast (MMP-1) and Human recombinant (MMP-2 and MMP-3) and Human recombinant (E.coli) (MMP-7) as the MMP source. The substrate is Mca-Pro-Leu-Gly-Leu-Dpa-Ala-Arg-NH2. The enzymatic reaction is based on the conversion of Mca-Pro-Leu-Gly-Leu-Dpa-Ala-Arg to Mca-Pro-Leu-Gly + Leu-Dpa-Ala-Arg-NH2, where Mca-Pro-Leu-Gly is quantified using spectrofluorimetric quantitation. As reference compounds are employed TIMP-1 and TIMP-2. Such methods are commercially available at MDS Pharma Services.

MMP-7 = molecular target: T2, MMP-7 (Homo sapiens, UniProt P09237); assay: as above; format: biochemical; conditions: concentration giving 50 % inhibition; Human recombinant (E.coli) MMP-7; read-out: Concentration of Pemirolast
T2 construct: host or cells: E. coli
T2 sequence (P09237 95-267): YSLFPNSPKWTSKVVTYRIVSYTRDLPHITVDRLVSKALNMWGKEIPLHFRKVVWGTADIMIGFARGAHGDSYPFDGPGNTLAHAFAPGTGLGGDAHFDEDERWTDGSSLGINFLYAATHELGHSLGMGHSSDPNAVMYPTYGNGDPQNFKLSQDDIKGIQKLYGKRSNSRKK
Method: as §1, §2

MMP-3 = MMP-3 (Homo sapiens, UniProt P08254); assay: as above; format: biochemical; conditions: concentration giving 50 % inhibition; Human recombinant MMP-3; read-out: Concentration of Pemirolast
Sequence of MMP-3 (P08254 100-477): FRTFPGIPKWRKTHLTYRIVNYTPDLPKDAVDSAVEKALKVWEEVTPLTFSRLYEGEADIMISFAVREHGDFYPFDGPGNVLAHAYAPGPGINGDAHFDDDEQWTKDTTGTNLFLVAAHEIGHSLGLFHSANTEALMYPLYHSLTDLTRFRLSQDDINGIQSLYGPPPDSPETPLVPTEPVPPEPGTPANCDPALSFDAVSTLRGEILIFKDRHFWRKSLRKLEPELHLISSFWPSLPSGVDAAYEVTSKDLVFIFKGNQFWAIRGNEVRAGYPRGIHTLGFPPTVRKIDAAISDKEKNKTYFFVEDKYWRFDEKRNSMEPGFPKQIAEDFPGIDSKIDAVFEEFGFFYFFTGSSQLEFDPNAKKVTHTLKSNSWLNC
Method: as §1, §2

MMP-1 = molecular target: T3, MMP-1 (Homo sapiens, UniProt P03956); assay: as above; format: biochemical; conditions: concentration giving 50 % inhibition; MMP-1 from Human rheumatoid synovial fibroblast; read-out: Concentration of Pemirolast
T3 construct: The methods employ Human rheumatoid synovial fibroblast (MMP-1); endogenous in cells; host or cells: Human rheumatoid synovial fibroblast
T3 sequence (P03956 100-469): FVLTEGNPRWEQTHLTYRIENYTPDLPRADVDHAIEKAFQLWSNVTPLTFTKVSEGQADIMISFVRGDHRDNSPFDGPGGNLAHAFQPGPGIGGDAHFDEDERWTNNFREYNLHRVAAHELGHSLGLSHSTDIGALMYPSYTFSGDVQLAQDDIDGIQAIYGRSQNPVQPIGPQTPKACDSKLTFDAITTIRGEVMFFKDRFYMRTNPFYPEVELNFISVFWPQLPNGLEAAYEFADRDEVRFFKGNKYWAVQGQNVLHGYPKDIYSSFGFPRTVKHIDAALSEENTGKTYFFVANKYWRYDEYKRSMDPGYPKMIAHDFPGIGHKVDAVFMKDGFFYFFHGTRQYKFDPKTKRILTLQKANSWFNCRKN
Method: as §1, §2

acne vulgaris = assay: Case of treatment of acne vulgaris; format: in vivo, person
Source text: A person was suffering from acne vulgaris characterised by comedones and some inflammatory lesions. They had previously regularly used a 5% benzoyl peroxide cream to treat the condition. During a flare up of the condition they applied a 5.0% aqueous solution of Pemirolast (potassium salt) once daily for four weeks to the areas affected. […] The treatment was followed and assessed by a physician.

TNF-α = assay: Cytokine production, LPS induced human PBMC; format: cell-based; conditions: concentration giving 50 % inhibition, read-out: Concentration of Pemirolast
Method: (§3) The inhibition of Pemirolast on cytokine production was determined using the assay "LPS induced human PBMC".

IL-1α = assay: Cytokine production, LPS induced human PBMC; format: cell-based; conditions: statement in words only, no value given
Method: as §3

[2] = person, 5.0% aqueous solution of Pemirolast (potassium salt) once daily for four weeks on affected areas

Structure (SMILES) | inflammatory reaction in the arachidionic acid treated ear [1] | IC50 (MMP-2) | IC50 (MMP-7) | IC50 (MMP-3) | IC50 (MMP-1) | inflamed area surrounding the lesion (acne vulgaris; [2]) | inflammatory lesions (acne vulgaris; [2]) | IC50 (TNF-α) | inhibition of IL-1α (IL-1α) | reddened inflamed area (acne vulgaris; same patient, usual previous treatment with 5% benzoyl peroxide cream)
Cc1cccn2c(=O)c(-c3nnn[nH]3)cnc12 [Pemirolast, 9-methyl-3-(1H-tetrazol-5-yl)-4H-pyrido[1,2-a]pyrimidin-4-one] | significantly prevented the inflammatory reaction | 25 µM | 32 µM | 32 µM | 18 µM | recessed without any noticeable scarring | completely recessed | 100 µM | inhibits | 
O=C(OOC(=O)c1ccccc1)c1ccccc1 [benzoyl peroxide] |  |  |  |  |  |  |  |  |  | did not remove the reddened inflamed area

Source: patent EP1818058A2, “TREATMENT OF MMP-MEDIATED DERMATOLOGICAL DISEASES WITH PEMIROLAST” (Astion Pharma A/S, priority 2006, dated 2007)
